Data from patent publication US12171737B2, “Methods for reducing the symptoms of neurodegenerative disease in a human” (priority 2021, dated 2024).

Experiments:
[1] = tested on: patient with Parkinsonism; assay: Case reports: skin application in patients with Parkinsonism/dystonia (Examples 3-5); assay type: in vivo, human
Source text: This person presented with left hemiparetic neglect, reduced finger fine motor capacity, flat affect, tremor, and reduced extended arm wrist rotation and loss of shoulder extension and abduction. The diagnosis of Parkinsonism on clinical grounds was confirmed at a major hospital chain neurology clinic. […] Their extended wrist rotation range measured 60 degrees initially; by six months this approached 200 degrees. At 3 months they could extend their shoulder quickly to 180 degrees (initially slowly to 60 degrees.) This functionality continues to be maintained over 15 months of intermittent applications of salve and ingestion of isomerized safflowerate.
This person presented while on Sinemet prescribed by a major hospital chain neurology clinic for Parkinsonism. […] They also had reduced head rotation with painful limitation.
This individual stopped his Sinemet, continued every other day application of the Example 12 and oral intake of isomerized safflowerate. Improvement has maintained for 4 months, with rare intermittent right-hand tremors after a day of heavy farming.
This person sustained the onset of right arm dystonic Parkinsonism several months after a traumatic brain injury. […] Personal life issues prevented further applications.
The patient was instructed to rotate, extend and open their hand while they were actively having right hand-arm Parkinsonism tremors. They were unable to either rotate their wrist or open their hand voluntarily initially as shown on the left picture so they attempt to force it open with their left hand. The patient was treated with application of the salve over their right arm, subocciput, and upper torso bilaterally.

[2] = tested on: gram positive and negative bacteria as well as fungi including Malassezia, Aspergillus, and Candida; assay: Anti-microbial capacity of K-CLA; assay type: cell-based
patient with dystonia = assay: Case reports: skin application in patients with dystonia (Examples 1, 2); assay type: in vivo, human; conditions: Example 1 patient, right arm dystonia; salve applied
Source text: Over the years, I observed progression of dystonia of a patient. […] An extended forearm wrist rotation was used to identify and measure progression of dystonia. A normal human can rotate the wrist of the fully extended arm more than 270 degrees. The patient was falling to 200 degrees with increasing pain in the opposing forearm muscles.
Last spring, I applied a salve of K-CLA, potassium-conjugated linoleic acid, to potentially kill the microbial residents in the skin causing the dystonia.
This person presented with right arm dystonia after complaints of hand incoordination worsening with vibration. Muscle tenderness and loss of range of motion of extended-wrist rotation defined the clinical diagnosis confirmed by pattern EMG (Nicolet) within a university neurology clinic. The Potassium safflowerate of Example 11 as a salve. […] The improved capacity including reduction in hand tremor has continued with application of Example 10 and 11 application every 2-7 days.

patient with Alzheimer's = assay: Case reports: skin application in Alzheimer's syndrome (Examples 7, 8); assay type: in vivo, human; conditions: patient with early Alzheimer's disease and cortical atrophy
[3] = tested on: patients having dystonia with traumatic brain injury; assay: Video capture of wrist rotation before and after application, five patients with Dystonia/Parkinsonism (Example 9); assay type: in vivo, human; conditions: for increase in external wrist rotation / increase in internal wrist rotation: FIG. 1
Source text: Five patients aged 42-67 using recorded videos of hand movement Dystonia/Parkinsonism before and after application of Example 12 for 5-10 days. Four had bilateral symptoms. Using video capture to measure the rotation of their wrists before and after application of the […]. […] This improvement has been sustained with intermittent continuing application of the salve to the skin of the forearm and shoulder for 3 months.
Subsequently, I have recorded videos of hand movement in patients with Dystonia/Parkinsonism before and after similar treatment. Several had bilateral symptoms. Video capture was used to measure the rotation of their wrists before and after application of the K-CLA 0.1-12%. […] This improvement has been sustained with intermittent continuing application of the salve to the skin of the forearm and shoulder. […] Application of a broad spectrum antimicrobial with profound antifungal capacity can reverse symptoms of Dystonia/Parkinsonism.

[4] = tested on: bacteria and fungi (cross-kingdom); conditions: hospital disinfection; Changaris and Carenbauer 2022; cited from earlier work
[5] = tested on: malassezia species, candida, aspergillus and many gram positive and negative bacteria; conditions: Changaris and Sullivan 2019; cited from earlier work

| Molecule | right arm dystonic Parkinsonism ([1]; Example 5, person, as tolerated) | anti-microbial capacity [2] | dystonic symptoms (patient with dystonia) | skin reactions ([1]; hemiparetic Parkinsonism patient and early Alzheimer's patient, skin application) | acute hemiparetic Parkinsonism ([1]; patient who refused conventional medications, salve) | mental acuity and emotionality (patient with Alzheimer's) | extended wrist rotation ([3]; applied as salve, within weeks) | increase in external wrist rotation ([3]; first patient) [%] | increase in internal wrist rotation ([3]; first patient) [%] | capacity to draw, patient's own impression ([3]; one patient, an architect) | increase in external wrist rotation ([3]; second patient) [%] | increase in internal wrist rotation ([3]; second patient) [%] | cross-kingdom anti-bacterial and anti-fungal efficacy [4] | biocidal capacity [5] |
| --- | --- | --- | --- | --- | --- | --- | --- | --- | --- | --- | --- | --- | --- | --- |
| C#CCN(C)[C@H](C)Cc1ccccc1 [selegiline, reference compound] | without significant improvement |  |  |  |  |  |  |  |  |  |  |  |  |  |
| potassium-conjugated linoleic acid [K-CLA] |  | extraordinary anti-microbial capacity | Most of the dystonic symptoms were resolved | intense skin reactions | improving acute hemiparetic Parkinsonism with both strength and agility | clinical improvement in mental acuity and emotionality | measurable improvement | ~20 | ~30 | capacity to draw has improved | ~10 | ~20 | sufficient to satisfy the United States Environmental Protection Agency requirements for hospital disinfection | biocidal capacity against at least four malassezia species |
